The source of these data is ChEMBL document CHEMBL4052813, “Achyrodimer F, a tyrosyl-DNA phosphodiesterase I inhibitor from an Australian fungus of the family Cortinariaceae” (Bioorg Med Chem Lett, 2017).

Broadly, the IC50 is the point on the concentration scale where inhibition reaches its midpoint.

For assay [1], the target named is T1, Tyrosyl-DNA phosphodiesterase 1 (Homo sapiens, UniProt Q9NUW8). Briefly: Inhibition of Tdp1 (unknown origin) using 5'-(6-TAMN-AGGATCTAAAAGACTT-BHQ-)3' as substrate pretreated for 30 mins followed by substrate addition by fluorescence assay.
T1 sequence (Q9NUW8 whole entry): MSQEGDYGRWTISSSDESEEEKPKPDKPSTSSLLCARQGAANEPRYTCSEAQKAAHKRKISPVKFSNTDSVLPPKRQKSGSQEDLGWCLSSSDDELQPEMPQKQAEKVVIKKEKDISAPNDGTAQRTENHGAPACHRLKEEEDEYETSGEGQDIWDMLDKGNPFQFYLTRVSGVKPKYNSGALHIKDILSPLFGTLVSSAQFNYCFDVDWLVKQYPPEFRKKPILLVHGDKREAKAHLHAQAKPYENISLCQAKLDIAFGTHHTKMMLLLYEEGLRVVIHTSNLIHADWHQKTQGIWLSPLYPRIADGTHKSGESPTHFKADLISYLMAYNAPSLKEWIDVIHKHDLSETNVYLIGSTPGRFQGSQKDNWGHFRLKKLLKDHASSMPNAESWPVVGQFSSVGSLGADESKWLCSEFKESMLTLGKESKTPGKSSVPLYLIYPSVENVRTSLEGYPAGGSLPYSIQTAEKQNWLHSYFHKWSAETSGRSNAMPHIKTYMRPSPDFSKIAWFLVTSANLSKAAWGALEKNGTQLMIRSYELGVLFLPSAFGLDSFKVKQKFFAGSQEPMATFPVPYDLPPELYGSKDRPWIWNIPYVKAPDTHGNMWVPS
For assay [2], the target named is T1, Tyrosyl-DNA phosphodiesterase 1. The assay can be described thus: Inhibition of Tdp1 (unknown origin) up to 40 uM using 5'-(6-TAMN-AGGATCTAAAAGACTT-BHQ-)3' as substrate pretreated for 30 mins followed by substrate addition by fluorescence assay.

Consider `O=c1cc(O)cc([C@H]2[C@H](c3ccc(O)cc3)[C@H](c3cc(O)cc(=O)o3)[C@H]2c2ccc(O)cc2)o1`, for which the IC50 in assay [1] turned out to be 1000 nM.
With `O=c1cc(O)cc(/C=C/c2ccc(O)cc2)o1`, the inhibition result in assay [2] was “Dose-dependent effect”.
Turning to `O=c1cc(O)cc(/C=C/c2ccc(O)c(O)c2)o1`, the inhibition entry in assay [2] was “Dose-dependent effect”.
